Assay results published in US11466070B2, “Signalling system” (AUTOLUS LIMITED, priority 2016, dated 2022).

System: BW5 T-cells
Assay: Activation of TetCAR-expressing BW5 T-cells challenged with SupT1 cells expressing CD33, with increasing tetracycline
Type: cell-based
Conditions: TetCAR (anti-CD33) BW5 T-cells challenged with SupT1 cells expressing CD33
Text: A bicistronic construct was expressed in BW5 T cells as a single transcript which self-cleaves at the 2A site to yield a signalling component which comprises TiP fused via a flexible linker to the endodomain of CD3-Zeta; and a receptor component which comprises a CD33 recognizing scFv, a spacer derived from the Fc domain of IgG1, a CD4 derived transmembrane and intracellular domain; and TetR (FIG. 6a). A control was also expressed which was identical except that TiP was absent from the signalling component (FIG. 6b).
The BW5 T-cells were challenged with wild-type SupT1 cells or SupT1 cells engineered to express CD33 in the absence of tetracycline or in the presence of increasing concentrations of tetracycline.
Control TetCAR which lacks the TiP domain was also transduced into BW5. Once again, these T-cells were challenged with wild-type SupT1 cells or SupT1 cells engineered to express CD33 in the absence or in the presence of increasing concentration of Tetracycline.

**Q.** With CN(C)[C@@H]1C(O)=C(C(N)=O)C(=O)[C@@]2(O)C(O)=C3C(=O)c4c(O)cccc4[C@@](C)(O)[C@H]3C[C@@H]12 [tetracycline, reference compound] as the compound, how does the “concentration of tetracycline at which activation is fully inhibited” value read?
**A.** 100 nM
